Data: PMC11997999, “Uncovering α-Selectivity for Liver X Receptor Agonists for Lipotoxic Cancer Therapies” (Journal of Medicinal Chemistry, 2025)
pEC50: −log10 of the molar value.

Key:
BNL CL.2 cells = assay: Cell viability analysis in untransformed liver cells BNL CL.2 (CellTiter-Glo); type: cell-based; settings: BNL CL.2, 5d, with 2 μM sorafenib
Experimental: (§1) To further determine the therapeutic potential of compound 40, we analyzed the effect of a combinatorial lipotoxic therapy with this agonist in untransformed liver cells. We applied the well-established untransformed liver cell lines AML12 and BNL CL.2 and subjected them to treatment with 40 in combination with sorafenib.
(§2) For organoid treatment studies, digestion of organoids was performed using TrypLE Express (Gibco) supplemented with 100 μg/mL DNaseI and 10.5 μM Y-27632 dihydrochloride (Invitrogen) at 37 °C, and afterward, single-cells were plated in white 96 well plates (Sarstedt) in a mixture of 10% Matrigel (Growth Factor Reduced (GFR) Matrigel, Corning) in culture medium. Cell viability was determined after 5 days of treatment using the CellTiter-Glo 3D Cell Viability Assay Kit (Promega). Cell viability of Hep3B, AML12, and BNL CL.2 cells was determined after 5 days of treatment in white 96 well plates (Sarstedt) using the CellTiter-Glo 2.0 Cell Viability Assay Kit (Promega). AML12 and BNL CL.2 cells were also obtained from the American Type Culture Collection. The luminescence signal was measured using an […] M PLEX plate reader (Tecan) and the Tecan i-control software (v3.9.1). Sodium oleate (Selleckchem) was dissolved in methanol and added to cells at a final concentration of 200 μM.

LXRα LBD (GST) = biological target: T1, LXRα LBD (GST) (Homo sapiens, UniProt Q13133); assay: Time-resolved LXR FRET assay (LanthaScreen TR-FRET LXRα Coactivator Assay Kit); type: biochemical; settings: 5 nM LXRα LBD (GST), read after 6 h; R^2 of fit given; read-out: TR-FRET activity (EC50) LXRα
T1 construct: 5 nM LXRα LBD (GST); 10 nM LXRβ LBD (GST); purchased ThermoFisher Scientific PV4655
T1 sequence (Q13133 209-447 limits assumed): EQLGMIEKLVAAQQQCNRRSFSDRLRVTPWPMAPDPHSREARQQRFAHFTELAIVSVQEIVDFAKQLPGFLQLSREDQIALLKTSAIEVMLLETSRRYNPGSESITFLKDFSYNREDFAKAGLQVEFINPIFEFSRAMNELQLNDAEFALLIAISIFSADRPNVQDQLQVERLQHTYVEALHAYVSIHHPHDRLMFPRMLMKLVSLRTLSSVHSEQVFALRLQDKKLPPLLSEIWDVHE

[1] = tested on: Akt1^Myr; Myc^OE HCC organoids; assay: Cell viability analysis in HCC organoids (CellTiter-Glo 3D); type: cell-based, murine; settings: 5d, with 4 μM sorafenib
From the text: Finally, we analyzed the efficacy of compound 40 in preclinical treatment studies in three-dimensional liver cancer organoid cultures. HCC organoids driven by myristoylated Akt1 and overexpressed Myc (Akt1^Myr; Myc^OE) were isolated from murine liver tumors and subjected to monotherapies of sorafenib, compound 40, or a combination thereof (Figure 7C). The therapeutic outcome was side-by-side compared with combinatorial therapies comprising the established agonists T0901317 (1) and GW3965 (2). […] Isolation of murine HCC organoid cultures was performed from liver tumors derived from C57BL/6 mice using established protocols.[26] The animal experiments were approved by committees of the regional authority of the state of Baden-Wuerttemberg (Regierungspraesidium Tuebingen, authorization number M15/18G) as appropriate. After digestion, the organoids were embedded in 100% Growth Factor Reduced (GFR) MatrigelTM (Corning) and cultured at 37 °C and 5% CO2 in HCC organoid medium supplemented with nicotinamide (10 mM), N-acetylcystein (1.25 mM), human HGF (50 ng/mL), human FGF-10 (100 ng/mL), human R-Spondin (0.5 μg/mL), forskolin (10 μM), A83- 01 (0.5 μM), murine Noggin (50 ng/mL), gastrin I (10 nM), human BMP-7 (25 ng/mL), human Wnt3a (100 ng/mL), B27 supplement (1×) and N2 supplement (1×). The cultures were split by mechanical dissociation every 3 to 4 days. […] Cell viability was determined after 5 days of treatment using the CellTiter-Glo 3D Cell Viability Assay Kit (Promega). Cell viability of Hep3B, AML12, and BNL CL.2 cells was determined after 5 days of treatment in white 96 well plates (Sarstedt) using the CellTiter-Glo 2.0 Cell Viability Assay Kit (Promega). […] The luminescence signal was measured using an […] M PLEX plate reader (Tecan) and the Tecan i-control software (v3.9.1). […]

AML12 cells = assay: Cell viability analysis in untransformed liver cells AML12 (CellTiter-Glo); type: cell-based; settings: AML12, 5d, with 2 μM sorafenib
Experimental: as §1, §2

## O=C1C(Nc2ccc(N3CCCCC3)cc2)=C(c2ccccc2)C(=O)N1Cc1ccccc1 [Compound 40, 1-Benzyl-3-phenyl-4-((4-(piperidin-1-yl)phenyl)amino)-1H-pyrrole-2,5-dione]
BNL CL.2 cells
  sensitivity of untransformed liver cells to combination therapy (cell viability): only very low sensitivity
LXRα LBD (GST)
  pEC50: 7.38
[1]
  therapeutic efficacy (cell viability) in combination with sorafenib: further improved therapeutic efficacy
AML12 cells
  sensitivity of untransformed liver cells to combination therapy (cell viability): only very low sensitivity
